Measurements published in patent US20120039813A1, “INTRINSICALLY COLORED, LUMINESCENT SILK FIBROIN AND A METHOD OF PRODUCING THE SAME” (priority 2009, published 2012).
Entries after “also recorded” stand apart in the source; their conditions may differ.

Experiments:
silkworm [1] = assay: Uptake of dyes into the silkworm and the silk fibroin after feeding dye-modified feed; format: in vivo; conditions: for Uptake of dye in worm / Uptake of dye in fibroin: dye fed to silkworm in modified feed; for Uptake of dye in fibroin: silk fibroin
Text: The modified feed was then fed to silkworms starting on the third day of fifth instar. The silk gland, obtained through dissection, also absorbed the dye and became colored. At day 8-9 of fifth instar, the silkworms started producing intrinsically colored and fluorescent silk cocoon as shown in FIG. 3. […]

physchem = assay: physchem
Text: (§1) FIG. 12 depicts the quantity of various dyes in sericin and fibroin per gram of raw silk as a function of their n-octanol/water partition coefficient (log p).
(§2) FIG. 12 summarizes the amounts of various dyes distributed in silk's fibroin and sericin as a function of log P, a measure of hydrophobicity.

silkworm [2] = assay: Quantity of various dyes in sericin, fibroin and gland content of dye-fed silkworms
Text: as §1, §2

[3] = other dye molecules apart from the rhodamine series, feeding method

With `CN(C)c1ccc2cc3ccc(N(C)C)cc3nc2c1` [Acridine orange, acridine orange] the “Uptake into silk gland and silk” value (silkworm [1]; [3]) was “efficient uptake”, the logP (physchem) was 1.8 and the “Amount of dye present in silk (sericin and fibroin) and silkworm” value (shortened to “Amount of dye present in silk”) (silkworm [2]; in vivo) was “very low concentration in silk”. For the same molecule, the “Concentration in gland content” value (silkworm [2]; in vivo) was “very low”.

With `O=S1(=O)OC(c2cc(Br)c(O)c(Br)c2)(c2cc(Br)c(O)c(Br)c2)c2ccccc21` [Bromophenol blue] the “Uptake into silk gland and silk” value (silkworm [1]; [3]) was “did not display significant uptake”.

With `O=C1OC2(c3ccc(O)cc3Oc3cc(O)ccc32)c2ccccc21` [Fluorescein, fluorescein] the “Uptake into silk gland and silk” value (silkworm [1]; [3]) was “did not display significant uptake”, the logP (physchem) was -0.79 and the “Amount of dye present in silk” value (silkworm [2]; in vivo) was “negligible presence in silk and in silkworm”.

For `O=C(O)c1ccccc1C1=c2cc3c4c(c2Oc2c1cc1c5c2CCCN5CCC1)CCC[N+]=4CCC3.[Cl-]` [Rhodamine 101, rhodamine 101], the “Uptake of dye in worm” value (silkworm [1]) was “yes”, the “Uptake of dye in fibroin” value (silkworm [1]) was “yes” and the “log P (n-octanol/water partition coefficient)” value (physchem) was 2.19. For the same molecule, the “Amount of dye present in silk” value (silkworm [2]; FIG. 12, result in words) was “much higher concentration” and the “Distribution of dye between silk sericin and fibroin” value (silkworm [2]; FIG. 12, result in words) was “majority residing in silk fibroin rather than sericin”.

For `Cl.N=c1ccc2c(-c3ccccc3C(=O)O)c3ccc(N)cc3oc-2c1` [Rhodamine 110, rhodamine 110], the “log P (n-octanol/water partition coefficient)” value (physchem) was 1.17 and the “Amount of dye present in silk” value (silkworm [2]; FIG. 12, result in words) was “substantial amounts in both sericin and fibroin; also recorded: lower uptake”.

In the case of `CCN(CC)c1ccc2c(c1)Oc1cc(N(CC)CC)ccc1C21OC(=O)c2ccccc21` [Rhodamine B base, rhodamine B base], the “Uptake of dye in worm” value (silkworm [1]) is reported as “yes” and the “Uptake of dye in fibroin” value (silkworm [1]) is reported as “yes”.

In the case of `CCN(CC)c1ccc2c(-c3ccccc3C(=O)O)c3ccc(=[N+](CC)CC)cc-3oc2c1.[Cl-]` [Rhodamine B, rhodamine B], the “Uptake of dye in worm” value (silkworm [1]) is reported as “yes”, the “Uptake of dye in fibroin” value (silkworm [1]) is reported as “yes” and the “log P (n-octanol/water partition coefficient)” value (physchem; measure of hydrophobicity) is reported as 2.43. For the same molecule, the “Amount of dye present in silk” value (silkworm [2]; FIG. 12, result in words) was “much higher concentration”, the “Distribution of dye between silk sericin and fibroin” value (silkworm [2]; FIG. 12, result in words) was “majority residing in silk fibroin rather than sericin” and the “Concentration in gland content” value (silkworm [2]; in vivo) was roughly 1000 µM.

With `O=S(=O)([O-])c1cc(S(=O)(=O)O)ccc1C1=c2cc3c4c(c2Oc2c1cc1c5c2CCCN5CCC1)CCC[N+]=4CCC3` [sulforhodamine 101] the “log P (n-octanol/water partition coefficient)” value (physchem) was −0.69 and the “Amount of dye present in silk” value (silkworm [2]; in vivo) was “negligible presence in silk and in silkworm”.

With Alcian blue the “Uptake into silk gland and silk” value (silkworm [1]; in vivo) was “did not display significant uptake”.

For rhodamine 116, the “log P (n-octanol/water partition coefficient)” value (physchem; measure of hydrophobicity) was 0.64.

In the case of rhodamine 123, the “Uptake of dye in worm” value (silkworm [1]) is reported as “no” and the “Uptake of dye in fibroin” value (silkworm [1]) is reported as “no”.
